From patent publication US8946260B2, “17α-hydroxylase/C17,20-lyase inhibitors” (Novartis AG, priority 2010, dated 2015) come the findings set out here.

SMILES strings stand for the structures.

The target in the first assay is T1, recombinant Human CYP17 enzyme (17-20 lyase) (Homo sapiens, UniProt P05093).
T1 construct: made in house; host or cells: A549 cells, adenoviral expression system; purified cell membrane preparations
T1 sequence (P05093 1-508): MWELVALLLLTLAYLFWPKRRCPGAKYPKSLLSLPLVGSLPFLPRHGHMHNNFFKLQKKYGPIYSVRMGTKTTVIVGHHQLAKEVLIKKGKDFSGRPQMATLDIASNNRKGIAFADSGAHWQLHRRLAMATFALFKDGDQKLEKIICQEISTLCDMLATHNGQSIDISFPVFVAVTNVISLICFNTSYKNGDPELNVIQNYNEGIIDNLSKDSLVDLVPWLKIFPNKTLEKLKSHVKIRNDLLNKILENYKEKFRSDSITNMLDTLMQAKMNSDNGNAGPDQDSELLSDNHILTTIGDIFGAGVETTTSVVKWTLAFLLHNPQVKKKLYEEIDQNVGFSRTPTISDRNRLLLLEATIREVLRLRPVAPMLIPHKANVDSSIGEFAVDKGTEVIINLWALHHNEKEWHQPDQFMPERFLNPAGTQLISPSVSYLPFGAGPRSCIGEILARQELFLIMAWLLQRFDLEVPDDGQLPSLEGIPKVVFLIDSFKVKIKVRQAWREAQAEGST
Nature of the assay: Cytochrome P450, 17-20 lyase (CYP17-lyase) assay, 17-α-hydroxy pregnenolone [21-3H] as substrate. In kind it is biochemical. The note with it: human CYP17 lyase; substrate 0.25 μM; room temperature, 90 minutes. An excerpt:
1) Cytochrome P450, 17-20 Lyase (CYP17-Lyase) Assay Development Using Recombinant Human CYP17 Enzyme and 17-α-Hydroxy Pregnenolone [21-3H] as the Substrate.
Cytochrome P450, 17-α-Hydroxylase, 17-20 lyase (CYP17) is a multi functional enzyme that plays a key role in the biosynthesis of steroid hormones. It catalyses both conventional hydroxylation and also the carbon-carbon bond cleavage reactions (Peter Lee-Robichaud et al, Biochem. J, (1997) 321, 857-63). In the hydroxylation reaction, it converts progesterone and pregnenolone to the corresponding hydroxylated products 17-α-hydroxy progesterone and 17-α-hydroxy pregnenolone. In the lyase reaction, it catalyzes the conversion of these hydroxylated substrates to Androstenedione and Dehydroepiandrosterone (DHEA) respectively. In the Cyp17 lyase assay described here, the conversion of 17-α-hydroxy pregnenolone to Dehydroepiandrosterone and acetic acid is being monitored.
Assay method was adopted from a published protocol with some modifications to suit our requirements (Dmitry N Grigoryev et al, Analytical Biochemistry, (1999) 267, 319-330). The conversion of 17-α-hydroxy pregnenolone to Dehydroepiandrosterone is accompanied by the release of acetic acid. In the Cyp17 lyase assay, 17-α-hydroxy pregnenolone labeled with tritium (3H) at position 21 is used as the substrate. Chloroform extraction removes the radioactive steroids and acetic acid is taken into aqueous layer. The tritiated acetic acid released in the assay thus extracted is quantified to determine the enzyme activity.
Initial buffer conditions were, 50 mM Phosphate buffer, pH 7.5 was used as the starting buffer for Cyp17 lyase activity based on the data published in US patent publication No. US2004/0198773 A1. […] Human Cyp 17 gene was cloned and expressed in Adenoviral expression system in A549 cell lines. The purified cell membrane preparations were used as the source for Human CYP17 enzyme. Total protein concentration: 8 mg/mL.
For routine screening, the assay was set up with 16 μg of enzyme in 50 μL reaction volume. 17α-hydroxy pregnenolone [21-3H] was added to a final concentration of 0.25 μM. NADPH is used at a final concentration of 4.2 mM. Total reaction volume was made up to 50 μL with 50 mM Phosphate buffer pH 7.5. The reaction mixture was incubated at room temperature for 90 minutes with gentle shaking. The reaction was stopped by the addition of 100 μL of buffer. 500 μL of 5% freshly prepared activated charcoal was added to the solution and mixed well by vortexing. The samples were centrifuged at 17568×g for 5 minutes. (14000 rpm). The supernatant was carefully transferred to fresh tube and 1.3 mL of scintillation fluid was added, mixed by vortexing.
The radioactivity was measured in a 1450 MicroBeta TriLux™ scintillation counter from Wallac-Perkin Elmer®, USA. The measurements were carried out in 2.0 mL Eppendorf™ tubes. Each tube was counted for 1 minute. The amount of tritiated acetic acid released is proportional to the lyase activity. Percent lyase activity in presence of inhibitor was calculated using the formula given below.
[formula] • Sample: Enzyme reaction in presence of inhibitor. • Positive control: Enzyme reaction without inhibitor but containing DMSO at 1% final concentration. • Blank—Contains all reagents except enzyme. • % Inhibition=100%−% Lyase activity
For IC50 determination, the % inhibition was plotted as a function of inhibitor concentration. The data was fitted to sigmoidal equation using Graphpad Prism® software IV to generate IC50 values.
With `O=c1c2c(ccn1-c1cnccc1C(F)(F)F)[nH]c1ccccc12` [Example 63A, 2-(4-(trifluoromethyl)pyridin-3-yl)-2,5-dihydro-1H-pyrido[4,3-b]indol-1-one], the “Lyase IC 50 nM Human” value was “NOT ACTIVE”.
The same measure, in the same setting: then `O=C1c2ccc(F)cc2CCN1c1cnccc1C(F)(F)F` [Example 78A, 6-fluoro-2-(4-(trifluoromethyl)pyridin-3-yl)-3,4-dihydroisoquinolin-1(2H)-one], with “Not active”.

The assay is the same for the next values; noted with them: human CYP17 lyase; substrate 0.25 μM; room temperature, 90 minutes; read-out: Lyase IC 50 nM Human.
As for `Cc1ccncc1N1CCc2c([nH]c3ccccc23)C1=O` [Example 61A, 2-(4-methylpyridin-3-yl)-2,3,4,9-tetrahydro-1H-pyrido[3,4-b]indol-1-one], the IC50 worked out at 1510 nM.
On the same count and under the same terms, then `Cc1ccncc1-n1ccc2[nH]c3ccccc3c2c1=O` [Example 62A, 2-(4-methylpyridin-3-yl)-2,5-dihydro-1H-pyrido[4,3-b]indol-1-one], with 17 nM; and `O=c1c2c(ccn1-c1cnccc1C(F)(F)F)[nH]c1ccc(F)cc12` [Example 64A, 8-fluoro-2-(4-(trifluoromethyl)pyridin-3-yl)-2,5-dihydro-1H-pyrido[4,3-b]indol-1-one], with 829 nM.
For the compound `Cc1ccncc1N1CCc2ccncc2C1=O` [Example 65A, 2-(4-methylpyridin-3-yl)-3,4-dihydro-2,7-naphthyridin-1(2H)-one], the IC50 was determined as 1140 nM.
Same read-out and setting: as for `Cc1ccncc1N1CCc2ccc3ncsc3c2C1=O` [Example 66A, 8-(4-methylpyridin-3-yl)-7,8-dihydrothiazolo[4,5-h]isoquinolin-9(6H)-one], the figure is 11 nM.
For `Cc1ccncc1N1CCc2cnccc2C1=O` [Example 67A, 2-(4-methylpyridin-3-yl)-3,4-dihydro-2,6-naphthyridin-1(2H)-one], the IC50 came out at 716 nM.
As to `O=c1c2cc(C(F)(F)F)ccc2ccn1-c1cncc(F)c1` [Example 68A, 2-(5-fluoropyridin-3-yl)-7-(trifluoromethyl)isoquinolin-1(2H)-one], the IC50 was found to be 282 nM.
The same measure, in the same setting: as for `Cc1ccncc1N1CCc2cc3cn[nH]c3cc2C1=O` [Example 69A, 7-(4-methylpyridin-3-yl)-6,7-dihydro-1H-pyrazolo[4,3-g]isoquinolin-8(5H)-one], the figure is 93 nM; as for `CC1Cc2ccc(C(F)(F)F)cc2C(=O)N1c1cnccc1C(F)(F)F` (centres unmarked) [Example 70A, 3-methyl-7-(trifluoromethyl)-2-(4-(trifluoromethyl)pyridin-3-yl)-3,4-dihydroisoquinolin-1(2H)-one], 744 nM; as for `O=C1c2cc3[nH]ncc3cc2CCN1c1cnccc1C(F)(F)F` [Example 72A, 7-(4-(trifluoromethyl)pyridin-3-yl)-6,7-dihydro-1H-pyrazolo[4,3-g]isoquinolin-8(5H)-one], 730 nM.
Regarding `O=C1c2cc(C(F)(F)F)ccc2CCN1c1cnccc1C1CC1` [Example 73A, 2-(4-cyclopropylpyridin-3-yl)-7-(trifluoromethyl)-3,4-dihydroisoquinolin-1(2H)-one], the IC50 came out at 14 nM.
As for `O=C1c2cc(Cl)ccc2CCN1c1cnccc1C1CC1` [Example 74A, 7-chloro-2-(4-cyclopropylpyridin-3-yl)-3,4-dihydroisoquinolin-1 (2H)-one], the IC50 stood at 23 nM.
On to `CCc1ccncc1N1CCc2ccc(Cl)cc2C1=O` [Example 75A, 7-chloro-2-(4-ethylpyridin-3-yl)-3,4-dihydroisoquinolin-1(2H)-one], for which the IC50 amounted to 8 nM.
For the compound `O=C1c2c(sc3ccccc23)CCN1c1cnccc1C1CC1` [Example 76A, 2-(4-cyclopropylpyridin-3-yl)-3,4-dihydrobenzo[4,5]thieno[3,2-c]pyridin-1(2H)-one], the IC50 was 4.2 nM.
Same read-out and setting: then `O=C1c2c(ccc(C(F)(F)F)c2F)CCN1c1cnccc1C(F)(F)F` [Example 77A, 8-fluoro-7-(trifluoromethyl)-2-(4-(trifluoromethyl)pyridin-3-yl)-3,4-dihydroisoquinolin-1(2H)-one], with 167 nM; and `O=C1c2cc(I)c(F)cc2CCN1c1cnccc1C(F)(F)F` [Example 79A, 6-fluoro-7-iodo-2-(4-(trifluoromethyl)pyridin-3-yl)-3,4-dihydroisoquinolin-1(2H)-one], with 19 nM; and `O=C1c2cc(Cl)c(F)cc2CCN1c1cnccc1C(F)(F)F` [Example 80A, 7-chloro-6-fluoro-2-(4-(trifluoromethyl)pyridin-3-yl)-3,4-dihydroisoquinolin-1(2H)-one], with 173 nM.
The same measure, in the same setting: as for `O=C1c2cc(Cl)c(F)cc2CCN1c1cnccc1C1CC1` [Example 82A, 7-chloro-2-(4-cyclopropylpyridin-3-yl)-6-fluoro-3,4-dihydroisoquinolin-1(2H)-one], the figure is 3 nM; as for `Cc1ccncc1N1CCc2cc(F)c(Cl)cc2C1=O` [Example 84A, 7-chloro-6-fluoro-2-(4-methylpyridin-3-yl)-3,4-dihydroisoquinolin-1(2H)-one], 5.3 nM.
The same measure, in the same setting: then `O=C1c2cc(C(F)(F)F)c(Cl)cc2CCN1c1cnccc1C(F)(F)F` [Example 85A, 6-chloro-7-(trifluoromethyl)-2-(4-(trifluoromethyl)pyridin-3-yl)-3,4-dihydroisoquinolin-1(2H)-one], with 108 nM; and `COc1cc2c(cc1Cl)C(=O)N(c1cnccc1C)CC2` [Example 86A, 7-chloro-6-methoxy-2-(4-methylpyridin-3-yl)-3,4-dihydroisoquinolin-1(2H)-one], with 11 nM; and `Cc1ccncc1N1CCc2cc(C#N)c(Cl)cc2C1=O` [Example 88A, 7-chloro-2-(4-methylpyridin-3-yl)-1-oxo-1,2,3,4-tetrahydroisoquinoline-6-carbonitrile], with 11 nM.
With `COc1cc2c(cc1Cl)C(=O)N(c1cnccc1C1CC1)CC2` [Example 89A, 7-chloro-2-(4-cyclopropylpyridin-3-yl)-6-methoxy-3,4-dihydroisoquinolin-1(2H)-one], the IC50 stood at 10 nM.
In the case of `N#Cc1cc2c(cc1Cl)C(=O)N(c1cnccc1C1CC1)CC2` [Example 91A, 7-chloro-2-(4-cyclopropylpyridin-3-yl)-1-oxo-1,2,3,4-tetrahydroisoquinoline-6-carbonitrile], the IC50 was determined as 11 nM.
